Measured values from paper PMC9666779 (Frontiers in Pharmacology, 2022).
Bridge positions count the residues as written; N and C are the ends. Square brackets hold non-standard residues; d marks the D form. Peptide text beside a SMILES is read from it.

Experiments:
NRP1 = NRP1 (Homo sapiens, UniProt O14786); experiment: biochemical; assay type: binding
Mpro = Mpro (Severe acute respiratory syndrome coronavirus 2, UniProt P0DTD1); experiment: biochemical; assay type: binding, SARS-CoV-2
SARS-CoV-2 Mpro = SARS-CoV-2 Mpro (Severe acute respiratory syndrome coronavirus 2, UniProt P0DTD1); experiment: biochemical
Description: According to a previously reported method ([Du et al., 2021]), the FRET-based enzymatic assay was used to evaluate the inhibitory effects of the peptides on Mpro. First, the Mpro (250 nM at a final concentration) was incubated with various concentrations of tested peptides in 90 μL reaction buffer for 30 min in a black 96-well plate, and then the reaction was initiated by adding 10 μL of […] FRET-based peptide substrate (Dabcyl-KTSAVLQ/SGFRKME-Edans). The reaction was monitored for 1 h, and the initial velocity was calculated using the data by linear regression. The IC50 was calculated by plotting the initial velocity against various concentrations of testing inhibitor by using a four parameters dose−response curve in Prism software.

FHs 74 Int cells = experiment: MTT cytotoxicity assay, FHs 74 Int cells; assay type: cell-based, human; conditions: 50 μM, 48 h
Description: According to a previously reported method ([Zheng et al., 2021b]), 293T, A549 and FHs 74 Int cells were plated in 96-well plates at a density of 5 × 10^4 cells per well. After incubation for 24 h, the peptide solution was added into the plates and the cells were incubated for 48 h. After that, the incubation medium was removed, the cells were washed with PBS at pH 7.4, and then MTT stock solution (0.5 mg/ml) was added into each well and incubated for another 4 h. The medium was removed by centrifugation, and the precipitated cells were lysed using DMSO. After the purple crystals were completely dissolved, the cell viability was calculated according to the absorbance signals measured by a microplate reader at the wavelength of 570 nm.
Figure S2. The cytotoxicity effects of MNs 1-4 on FHs 74 Int cells detected using MTT assay. Cells were treated with the concentration of 50 μM of peptides for 48 h. The results are represented as mean ± SD (n = 3).

Sequence of NRP1 (O14786 273-427): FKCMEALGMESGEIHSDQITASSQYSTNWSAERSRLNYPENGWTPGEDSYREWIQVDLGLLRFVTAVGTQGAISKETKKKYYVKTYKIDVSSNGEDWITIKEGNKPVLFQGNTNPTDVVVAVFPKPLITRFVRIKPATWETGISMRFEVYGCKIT

CC(C)C[C@@H]1NC(=O)[C@H](CCC(N)=O)NC(=O)[C@H](CCCNC(=N)N)NC(=O)[C@H](C)NC(=O)[C@H](CCCCN)NC(=O)[C@@H]2CSSC[C@@H](C(=O)N[C@@H](CC(=O)O)C(=O)N[C@@H](CCCCN)C(=O)N3CCC[C@H]3C(=O)N[C@@H](CCCNC(=N)N)C(=O)N[C@@H](CCCNC(=N)N)C(=O)O)NC(=O)[C@H](CCCNC(=N)N)NC(=O)[C@H](CSSC[C@H](NC(=O)[C@@H](N)CO)C(=O)N[C@@H](CCCCN)C(=O)N[C@@H](CC(N)=O)C(=O)N[C@@H]([C@@H](C)O)C(=O)N[C@@H](CC(=O)O)C(=O)N[C@@H](CO)C(=O)N[C@@H](CCCNC(=N)N)C(=O)N2)NC(=O)[C@H]([C@@H](C)O)NC(=O)[C@H](CCCNC(=N)N)NC(=O)[C@H](CCC(=O)O)NC(=O)[C@H](CC(N)=O)NC(=O)[C@H](CC(C)C)NC(=O)[C@H](CCC(=O)O)NC1=O [EG3287, reference compound] (H-SCKNTDSRCKARQLELNERTCRCDKPRR-OH; disulfide 2-21, 9-23; N-terminus assumed)
Kd (NRP1): 0.912 ± 0.0106 µM | Mpro, Kd (Mpro; MST, mean ± SD (n = 3)): no binding affinity

CC(C)C[C@@H]1NC(=O)[C@H](C(C)C)NC(=O)[C@H](C)NC(=O)[C@H](Cc2ccccc2)NC(=O)[C@H](CCC(N)=O)NC(=O)[C@H](CC(C)C)NC(=O)[C@@H](Cc2ccccc2)NC(=O)[C@H](N)CSSC[C@H](C(=O)NCC(=O)NCC(=O)NCC(=O)N[C@@H](CCCNC(=N)N)C(=O)N2CCC[C@H]2C(=O)N[C@@H](CCCNC(=N)N)C(=O)N[C@@H](CCCNC(=N)N)C(=O)NCC(=O)N[C@@H](CCCNC(=N)N)C(=O)O)NC(=O)[C@H](CCC(N)=O)NC(=O)[C@H](CCCCN)NC(=O)[C@H](CCCNC(=N)N)NC(=O)[C@H](CCCNC(=N)N)NC(=O)[C@H](Cc2c[nH]cn2)NC(=O)[C@H](CCCNC(=N)N)NC1=O [MN-1] (H-[dC][dF]LQFAVLRHRRKQ[dC]GGGRPRRGR-OH; disulfide 1-15)
IC50 (SARS-CoV-2 Mpro): 0.0563 ± 0.0039 µM | Kd (NRP1): 0.0956 ± 0.0041 µM | Kd (Mpro): 0.0534 ± 0.0025 µM

CC(C)C[C@@H]1NC(=O)[C@H](C(C)C)NC(=O)[C@H](C)NC(=O)[C@H](Cc2ccc(O)cc2)NC(=O)[C@H](CCC(N)=O)NC(=O)[C@H](CC(C)C)NC(=O)[C@@H](Cc2ccccc2)NC(=O)[C@H](N)CSSC[C@H](C(=O)NCC(=O)NCC(=O)NCC(=O)N[C@@H](CCCNC(=N)N)C(=O)N2CCC[C@H]2C(=O)N2CCC[C@H]2C(=O)N[C@@H](CCCNC(=N)N)C(=O)N[C@@H](CCCNC(=N)N)C(=O)N[C@@H](C)C(=O)N[C@@H](CCCNC(=N)N)C(=O)O)NC(=O)[C@H](CCC(=O)O)NC(=O)[C@H](CCCNC(=N)N)NC(=O)[C@H](CCCNC(=N)N)NC(=O)[C@H](CCCCN)NC(=O)[C@H](CCC(N)=O)NC(=O)[C@H](CCCCN)NC1=O [MN-2] (H-[dC][dF]LQYAVLKQKRRE[dC]GGGRPPRRAR-OH; disulfide 1-15)
IC50 (SARS-CoV-2 Mpro): 0.0206 ± 0.0022 µM | Kd (NRP1): 0.0123 ± 0.0012 µM | viability of FHs 74 Int cells (cytotoxicity) (FHs 74 Int cells): undetectable cytotoxicity | Kd (Mpro): 0.0182 ± 0.0019 µM

CC[C@@H](C)[C@H]1NC(=O)[C@H](N)CSSC[C@H](C(=O)NCC(=O)NCC(=O)NCC(=O)N[C@@H](CCCNC(=N)N)C(=O)NCC(=O)N[C@@H](CCC(=O)O)C(=O)N[C@@H](CCCNC(=N)N)C(=O)N2CCC[C@H]2C(=O)N2CCC[C@H]2C(=O)N[C@@H](CCCNC(=N)N)C(=O)O)NC(=O)[C@H](CCCCN)NC(=O)[C@H](CCCNC(=N)N)NC(=O)[C@H](CCC(N)=O)NC(=O)[C@H](CCCNC(=N)N)NC(=O)[C@H](CCCCN)NC(=O)[C@H](CCCCN)NC(=O)[C@H](Cc2ccccc2)NC(=O)[C@H](C(C)C)NC(=O)[C@H](C)NC(=O)[C@H](CC(C)C)NC(=O)[C@H](CCC(N)=O)NC(=O)[C@H](CC(C)C)NC1=O [MN-3] (H-[dC][dI]LQLAVFKKRQRK[dC]GGGRGERPPR-OH; disulfide 1-15)
IC50 (SARS-CoV-2 Mpro): 0.209 ± 0.0076 µM | Kd (NRP1): 0.11 ± 0.0067 µM | Kd (Mpro): 0.206 ± 0.0088 µM

CC(C)C[C@@H]1NC(=O)[C@H](C(C)C)NC(=O)[C@H](C)NC(=O)[C@H](Cc2ccccc2)NC(=O)[C@H](CCC(N)=O)NC(=O)[C@H](CC(C)C)NC(=O)[C@@H](Cc2c[nH]c3ccccc23)NC(=O)[C@H](N)CSSC[C@H](C(=O)NCC(=O)NCC(=O)N[C@@H](CCCNC(=N)N)C(=O)N2CCC[C@H]2C(=O)N[C@@H](C)C(=O)N[C@@H](CCCNC(=N)N)C(=O)N2CCC[C@H]2C(=O)N[C@@H](C)C(=O)N[C@@H](CCCNC(=N)N)C(=O)O)NC(=O)[C@H](C)NC(=O)[C@H](CCC(N)=O)NC(=O)[C@H](CCCCN)NC(=O)[C@H](CCCCN)NC(=O)[C@H](CCC(=O)O)NC(=O)[C@H](CCCNC(=N)N)NC1=O [MN-4] (H-[dC][dW]LQFAVLREKKQA[dC]GGRPARPAR-OH; disulfide 1-15)
IC50 (SARS-CoV-2 Mpro): 0.119 ± 0.0061 µM | Kd (NRP1): 0.0151 ± 0.0033 µM | Kd (Mpro): 0.116 ± 0.0055 µM
